Measurements published in patent US20070037882A1, “Remedy for cerebral neurodegenerative diseases using ppar agonist” (Astellas Pharma Inc., priority 2003, published 2007).
“Also recorded” adds a separate entry of the source.

Tests used:
SH-SY5Y cells [1] = assay: Thapsigargin-induced cellular death model, apoptosis by caspase-3/7 assay; type: cell-based, human; details: for suppression of caspase-3/7 activity (in words): SH-SY5Y, thapsigargin; for Caspase 3/7 activity: thapsigargin + (100 nM), 3 h
SH-SY5Y cells [2] = assay: MPP+-induced cellular death model, viable cells by MTT assay; type: cell-based, human; details: for suppression of MPP+-induced cellular death (in words): SH-SY5Y; for MTT assay A490: MPP+ + (3 mM), 24 h
Protocol: SH-SY5Y cells were spread on a 96-well plate (70,000 cell/well in 100 μl DMEM low glucose 10% fetal bovine serum) for overnight culturing, from which the culture medium was removed with an aspirator. Then, DMEM without serum was added at 50 μl/well. […] 2 hours later, DMEM without serum containing 18 mM MPP^+ was added at 20 μl/well. (MPP^+ to a final 3 mM concentration) (For a control, DMEM without serum alone was added).
24 hours later, cell growth activity was assayed by measuring the absorbance at 490 nm, using Celltiter 96 aqueous one solution cell proliferation assay kit (Promega).
In the assay system, MPP^+ as an MPTP metabolite was added to a neuroblastoma SH-SY5Y, to inhibit the mitochondrial complex I to cause the generation of active oxygen and the inhibition of ATP synthesis, to induce cellular death. It is said that in the murine MPTP model commonly used as a model of Parkinson's disease, MPTP passing through the blood brain barrier is metabolized into MPP^+, which exerts toxicity specific to murine nigra cell to induce nerve detachment. Therefore, the assay system can be said as an in vitro assay system mimicking the murine MPTP model.

SH-SY5Y cells [3] = assay: MPP+-induced cellular death model, apoptosis by caspase-3/7 assay; type: cell-based, human; details: for suppression of caspase-3/7 activity (in words): SH-SY5Y, MPP+; for Caspase 3/7 activity: MPP+ + (3 mM), 3 h
Protocol: SH-SY5Y cells were spread on a 96-well plate (70,000 cell/well in 100 μl DMEM low glucose 10% fetal bovine serum) for overnight culturing, from which the culture medium was removed with an aspirator. Then, DMEM without serum was added at 50 μl/well. […] 2 hours later, DMEM without serum containing 18 mM MPP^+ was added at 20 μl/well. (MPP^+ to a final 3 mM concentration.) (For control, DMEM without serum alone was added.)
3 hours later, the caspase-3/7 activity was assayed with Apo-One homogenous Caspase-3/7 assay kit (Promega).

[4] = test system: rat cerebral infarction model; assay: Rat cerebral infarction model (middle cerebral artery-occluded reperfusion, Koizumi method); type: in vivo; details: for Lesions with cerebral infarction (area in % of damaged site in the 6 sections), Cortex / Lesions with cerebral infarction (area in % of damaged site in the 6 sections), Subcortex / Lesions with cerebral infarction (area in % of damaged site in the 6 sections), Total: 24 h after reperfusion; for action to reduce cerebral infarction (in words): rat cerebral infarction model
[5] = test system: GAL4-human PPARα fusion protein; assay: GAL4 reporter gene assay in CV-1 cells, human PPARα; type: cell-based; details: first 'Human PPAR-•' line (taken as α), pG5luc reporter
[6] = test system: GAL4-human PPARγ fusion protein; assay: GAL4 reporter gene assay in CV-1 cells, human PPARγ; type: cell-based; details: second 'Human PPAR-•' line (taken as γ), pG5luc reporter
[7] = test system: GAL4-human PPARδ fusion protein; assay: GAL4 reporter gene assay in CV-1 cells, human PPARδ; type: cell-based; details: third 'Human PPAR-•' line (taken as δ), pG5luc reporter
[8] = test system: GAL4-murine PPARα fusion protein; assay: GAL4 reporter gene assay in CV-1 cells, murine PPARα; type: cell-based; details: first 'Murine PPAR-•' line (taken as α), pG5luc reporter
[9] = test system: GAL4-murine PPARγ fusion protein; assay: GAL4 reporter gene assay in CV-1 cells, murine PPARγ; type: cell-based; details: second 'Murine PPAR-•' line (taken as γ), pG5luc reporter
[10] = test system: GAL4-murine PPARδ fusion protein; details: third 'Murine PPAR-•' line (taken as δ); CV-1 cells, pG5luc reporter
PPARδ = biological target: T1, PPARδ (Homo sapiens, UniProt Q03181); details: FEBS Letters 473 (2000) 333-336; read-out: affinity to PPARδ (Ki); cited from earlier work
T1 sequence (Q03181 1-441): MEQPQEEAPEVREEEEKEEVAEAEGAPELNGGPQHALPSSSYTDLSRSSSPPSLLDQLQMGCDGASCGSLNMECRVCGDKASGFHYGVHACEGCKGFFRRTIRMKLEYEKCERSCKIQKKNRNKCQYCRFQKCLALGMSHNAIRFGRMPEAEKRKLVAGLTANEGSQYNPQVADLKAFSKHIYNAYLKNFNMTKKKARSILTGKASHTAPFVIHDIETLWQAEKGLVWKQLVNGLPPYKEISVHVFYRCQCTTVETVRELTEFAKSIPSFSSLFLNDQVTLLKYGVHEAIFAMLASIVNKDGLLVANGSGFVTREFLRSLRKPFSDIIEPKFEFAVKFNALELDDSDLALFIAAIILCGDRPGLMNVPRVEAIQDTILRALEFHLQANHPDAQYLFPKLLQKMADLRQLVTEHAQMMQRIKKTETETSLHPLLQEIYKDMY

PPARγ = biological target: T2, PPARγ (Homo sapiens, UniProt P37231); details: FEBS Letters 473 (2000) 333-336; read-out: affinity to PPARγ (Ki); cited from earlier work
T2 sequence (P37231 1-505): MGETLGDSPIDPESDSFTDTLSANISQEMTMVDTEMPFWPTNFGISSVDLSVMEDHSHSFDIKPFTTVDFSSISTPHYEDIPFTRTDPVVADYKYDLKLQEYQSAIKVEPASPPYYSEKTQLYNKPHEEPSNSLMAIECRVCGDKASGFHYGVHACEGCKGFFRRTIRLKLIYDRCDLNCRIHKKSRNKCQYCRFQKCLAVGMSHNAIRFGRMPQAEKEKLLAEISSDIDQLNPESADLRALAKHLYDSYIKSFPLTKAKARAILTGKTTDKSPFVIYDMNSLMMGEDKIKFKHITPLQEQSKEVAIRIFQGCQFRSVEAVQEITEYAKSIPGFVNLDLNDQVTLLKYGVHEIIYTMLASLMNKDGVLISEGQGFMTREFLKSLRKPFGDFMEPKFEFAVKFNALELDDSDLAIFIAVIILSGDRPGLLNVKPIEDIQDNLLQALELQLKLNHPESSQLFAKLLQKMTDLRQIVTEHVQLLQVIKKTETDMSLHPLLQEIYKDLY

SMILES | suppression of caspase-3/7 activity (in words) (SH-SY5Y cells [1]) | Caspase 3/7 activity (SH-SY5Y cells [1]; compound 1 μM) [RFLU] | Caspase 3/7 activity (SH-SY5Y cells [1]; compound 10 μM) [RFLU] | Caspase 3/7 activity (SH-SY5Y cells [1]; compound 100 μM) [RFLU] | suppression of MPP+-induced cellular death (in words) (SH-SY5Y cells [2]) | MTT assay A490 (SH-SY5Y cells [2]; compound 0.1 μM) | MTT assay A490 (SH-SY5Y cells [2]; compound 1 μM) | MTT assay A490 (SH-SY5Y cells [2]; compound 10 μM) | MTT assay A490 (SH-SY5Y cells [2]; compound 100 μM) | suppression of caspase-3/7 activity (in words) (SH-SY5Y cells [3]) | Caspase 3/7 activity (SH-SY5Y cells [3]; compound 0.1 μM) [RFLU] | Caspase 3/7 activity (SH-SY5Y cells [3]; compound 1 μM) [RFLU] | Caspase 3/7 activity (SH-SY5Y cells [3]; compound 10 μM) [RFLU] | Caspase 3/7 activity (SH-SY5Y cells [3]; compound 100 μM) [RFLU] | Lesions with cerebral infarction (area in % of damaged site in the 6 sections), Cortex ([4]; 24 μg/head/day i.c.v.) [%] | Lesions with cerebral infarction (area in % of damaged site in the 6 sections), Subcortex ([4]; 24 μg/head/day i.c.v.) [%] | Lesions with cerebral infarction (area in % of damaged site in the 6 sections), Total ([4]; 24 μg/head/day i.c.v.) [%] | Lesions with cerebral infarction (area in % of damaged site in the 6 sections), Cortex ([4]; 240 μg/head/day i.c.v.) [%] | Lesions with cerebral infarction (area in % of damaged site in the 6 sections), Subcortex ([4]; 240 μg/head/day i.c.v.) [%] | Lesions with cerebral infarction (area in % of damaged site in the 6 sections), Total ([4]; 240 μg/head/day i.c.v.) [%] | other results
Cc1cc(SCc2sc(-c3ccc(C(F)(F)F)cc3)nc2C)ccc1OCC(=O)O [GW501516] | suppress the activity of caspase-3/7 | 237165 ± 5248 | 125951 ± 6465 | 421972 ± 21782 | suppress cellular death induced by MPP^+ in a concentration-dependent manner | 0.3361 ± 0.0073 | 0.3926 ± 0.0090 | 0.3814 ± 0.0156 | 0.2990 ± 0.0144 | suppress the activity of caspase-3/7 in a concentration-dependent manner | 847552 ± 36575 | 621059 ± 26590 | 798646 ± 54365 | 398604 ± 55698 | 9.39 ± 1.56 | 9.35 ± 0.65 | 18.74 ± 2.00 | 7.26 ± 1.67 | 7.88 ± 0.79 | 15.14 ± 2.20 | action to reduce cerebral infarction (in words) [4]: potent actions to reduce cerebral infarction; also recorded: far greater action of reducing cerebral damages
CCCc1c(OCCCOc2ccc(OCC(=O)O)cc2)ccc(C(C)=O)c1O [L-165041, 4-[3-[2-propyl-3-hydroxy-4-acetyl]phenoxy]propyloxyphenoxy acetic acid] | suppress the activity of caspase-3/7 | 652843 ± 8229 | 554233 ± 23703 | 242770 ± 5414 | suppress cellular death induced by MPP^+ in a concentration-dependent manner | 0.3744 ± 0.0067 | 0.3935 ± 0.0083 | 0.4799 ± 0.0078 | 0.3181 ± 0.0122 | suppress the activity of caspase-3/7 in a concentration-dependent manner | 1430206 ± 30804 | 1168920 ± 30554 | 646736 ± 26366 | 572152 ± 33695 | 12.70 ± 0.63 | 9.98 ± 0.30 | 22.68 ± 0.83 | 10.22 ± 1.29 | 9.19 ± 0.85 | 19.40 ± 1.98 | Caspase 3/7 activity (SH-SY5Y cells [1]; compound 0.1 μM): 732549 ± 24888 RFLU; Concentration for action exertion [5]: 10 M; Concentration for action exertion [6]: 10 M; Concentration for action exertion [7]: 0.1 M; Concentration for action exertion [8]: >100 M; Concentration for action exertion [9]: 10 M; Reduction ratio of cerebral cortex damage ([4]; i.c.v. 24 •g/head/day): 9%; Reduction ratio of cerebral cortex damage ([4]; i.c.v. 240 •g/head/day): 27%; action to reduce cerebral infarction (in words) [4]: potent actions to reduce cerebral infarction; Concentration for action exertion [10]: 0.1 M; Ki (PPARδ): 6 nM; Ki (PPARγ): 730 nM
